Molecules are shown by their SMILES. Calls of active or inactive are those of the source. The rule behind the calls is not given here.

The subject of experiment [1] is THP-1. As to the kind of experiment: Effect on TLR4 protein expression in human THP1 cells at 0.5 ug/ml after 6 hrs by Western blot analysis. The format is functional, cell-based. On the technique in general: Immunoblotting shows a protein as a band on a membrane.
The subject of experiment [2] is Aspergillus fumigatus. Nature of the experiment: Antifungal activity against Aspergillus fumigatus AF4215 hyphae co-incubated with human THP1 cells assessed as hyphal damage at 0.1 ug/ml after 6 hrs by XTT assay. The format is functional, organism-based. As to conditions: THP-1.
Experiment [3] concerns Aspergillus fumigatus. Nature of the experiment: Antifungal activity against Aspergillus fumigatus AF4215 hyphae assessed as hyphal damage at 0.1 ug/ml after 20 hrs by XTT assay. The format is functional, organism-based. Background: Formazan colour is commonly taken as a measure of viable cells.
For experiment [4], the system named is Aspergillus fumigatus. As to the kind of experiment: Antifungal activity against Aspergillus fumigatus AF4215 hyphae co-incubated with human monocytes assessed as hyphal damage at 0.1 ug/ml after 20 hrs by XTT assay. The format is functional, organism-based.
Experiment [5] concerns THP-1. Nature of the experiment: Effect on TLR4 protein expression in human THP1 cells co-incubated with Aspergillus fumigatus hyphae at 0.5 ug/ml after 6 hrs by Western blot analysis. The format is functional, cell-based.
In experiment [6] the test system is THP-1. Nature of the experiment: Increase in NF-kappaB-mediated TLR2 protein expression in human THP1 cells co-incubated with Aspergillus fumigatus hyphae at 0.5 ug/ml after 6 hrs by Western blot analysis. The format is cell-based.
The subject of experiment [7] is THP-1. As to the kind of experiment: Effect on TLR4 mRNA expression in human THP1 cells at 0.5 ug/ml after 6 hrs by RT-PCR analysis. The format is functional, cell-based.
In experiment [8] the test system is Aspergillus fumigatus. Nature of the experiment: Antifungal activity against Aspergillus fumigatus AF4215 hyphae co-incubated with monocytes assessed as hyphal damage at 0.1 ug/ml after 6 hrs by XTT assay. The format is functional, organism-based.
Experiment [9] relates to THP-1. As to the kind of experiment: Increase in NF-kappaB-mediated TLR2 mRNA expression in human THP1 cells co-incubated with Aspergillus fumigatus hyphae at 0.5 ug/ml after 6 hrs by RT-PCR analysis. The format is cell-based.
Experiment [10] has as its system THP-1. As to the kind of experiment: Increase in NF-kappaB-mediated TNF-alpha mRNA expression in human THP1 cells at 0.5 ug/ml after 6 hrs by RT-PCR analysis. The format is cell-based.
The test system of experiment [11] is THP-1. Nature of the experiment: Increase in NF-kappaB-mediated TNF-alpha mRNA expression in human THP1 cells co-incubated with Aspergillus fumigatus hyphae at 0.5 ug/ml after 6 hrs by RT-PCR analysis. The format is cell-based.
The subject of experiment [12] is THP-1. Nature of the experiment: Increase in NF-kappaB-mediated TLR2 protein expression in human THP1 cells at 0.5 ug/ml after 6 hrs by Western blot analysis. The format is cell-based.
In experiment [13] the test system is THP-1. As to the kind of experiment: Effect on TLR4 mRNA expression in human THP1 cells co-incubated with Aspergillus fumigatus hyphae at 0.5 ug/ml after 6 hrs by RT-PCR analysis. The format is functional, cell-based.
The subject of experiment [14] is THP-1. Nature of the experiment: Increase in NF-kappaB-mediated TLR2 mRNA expression in human THP1 cells at 0.5 ug/ml after 6 hrs by RT-PCR analysis. The format is cell-based.

`C[C@@H](c1ncncc1F)[C@](O)(Cn1cncn1)c1ccc(F)cc1F`: the result with THP-1 [1], with THP-1 [5], with THP-1 [7] and in the experiment with THP-1 [13] was inactive. In addition, the outcome in the experiment with Aspergillus fumigatus [2], with Aspergillus fumigatus [3], with Aspergillus fumigatus [4], in the experiment on THP-1 [6], in the experiment on Aspergillus fumigatus [8] and in the experiment on THP-1 [9] was Active. The result in the experiment on THP-1 [10], in the experiment on THP-1 [11], with THP-1 [12] and in the experiment with THP-1 [14] was Active.

The record behind these values is ChEMBL document CHEMBL1687711.
